Results taken from paper PMC9822434, “Estradiol-Based Salicylaldehyde (Thio)Semicarbazones and Their Copper Complexes with Anticancer, Antibacterial and Antioxidant Activities” (Molecules, 2022).
Values after ≈ are worked out from the molar mass of the structure shown.

Assays:
[1] = type: physicochemical
Method in brief: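 UV–vis pH-metric titrations at 25.0 ± 0.1 °C, I = 0.10 M KCl, 30% (v/v) DMSO/H2O under argon; ligand 20 μM, pH 2.0–12.5, alone or with 1 or 0.5 equiv. Cu(II). Spectra 200–800 nm, 2 cm path; pKa, overall stability constants (β) and species spectra fitted with PSEQUAD.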

[2] = test system: S. aureus ATCC 25928; assay: MIC determination; type: cell-based, Staphylococcus aureus; conditions: Gram-positive S. aureus ATCC 25928, Mueller Hinton Broth
Method in brief: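 Broth microdilution in Mueller Hinton Broth, two-fold serial dilutions starting at 100 µM compound (from 10 mM stocks in 90% DMSO). Each well inoculated with a 10^−4 dilution of overnight culture. MIC read per prior lab method.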

[3] = test system: A549, MCF-7, MCF-7 KCR and DU-145 cells; assay: γH2AX immunostaining (DNA double-strand breaks); type: cell-based, human; conditions: 20 µM, 3 h
Procedure: In order to determine the degree of DNA damage induced by the treatments, DNA double-strand breaks were visualized by γH2AX immunostaining. For this, 1 × 10^5 cells/well were seeded onto coverslips in 24-well plates. […] Then, cells were fixed with 4% formaldehyde (Molar Chemicals, Halásztelek, Hungary), permeabilized with 0.3% Triton-X-100 (Calbiochem, Merck Millipore, Darmstadt, Germany) and were blocked using 5% bovine serum albumin (BSA) (Sigma-Aldrich, St. Louis, MO, USA). Then, the samples were incubated with anti-γH2AX antibody (Thermo Fisher Scientific, Waltham, MA, USA) in 1:300 dilution followed by Alexa 488 fluorophore-conjugated goat anti-mouse secondary antibody (Abcam, Cambridge, UK) in 1:600 dilution. The fluorescence intensity of the stained samples was detected by an Olympus FV10i confocal microscope.

[4] = Cu(II) complex of the named ligand, 30% (v/v) DMSO/H2O, T = 25.0 °C, I = 0.1 M (KCl)

## C[C@]12CC[C@@H]3c4cc(C=NNC(N)=S)c(O)cc4CC[C@H]3[C@@H]1CCC2O (stereo partly drawn) [estradiol-TSC, 2-((3,17 Dihydroxy-estra-1,3,5(10)-triene-2-yl)methylene)Hydrazine-1-carbothioamide]
[1]
  pKa [CuL]+: 3.95
[1]; [4]
  logβ [CuLH−1]: 9.84 ± 0.03
  logβ [CuL]+: 13.79 ± 0.03
[1]; calculated at pH 5.0, cCu(II) = 20 µM, cligand = 20 µM
  pCu5.0: 7.8
[1]; estimated at pH 6.0, cCu(II) = 20 µM, cligand = 20 µM
  pCu6.0: 9.3
[1]; estimated at pH 7.4, cCu(II) = 20 µM, cligand = 20 µM
  pCu7.4: 12.1
[2]
  MIC: 25 µM (≈ 9.34 µg/mL)
[2]; Staphylococcus aureus, ATCC25928
  MIC: 25 µM (≈ 9.34 µg/mL)
[3]
  DNA double-strand breaks (γH2AX) vs untreated control cells: None of these treatments caused a higher degree of DNA damage
